ChEMBL document CHEMBL1201862, “PubChem BioAssay data set” (2004)
The source made the active and inactive calls. Cut-off read from the data, not from the text of the source, for most assays here: actives have a measured EC50 and inactives only a lower limit.

Tests used:
[1] = system: INS1; test: INS-1E survival protection against cytokine death – cell-based, luminescence, retest, dose response (AID 449756); format: functional; settings: Rattus norvegicus;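 note: cell death triggered by IL-1 beta plus TNF-alpha plus IFN-gamma mixture; protective hits raise ATP signal compared with cytokine alone wells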
[2] = target: Paired box protein Pax-8 (Homo sapiens, UniProt Q06710); test: PAX8 transcriptional activity inhibition in RMG-I – RMG-I cells, luciferase, cherry-pick, dose response (AID 687027); format: functional, cell-based;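 note: luciferase reporter driven by Pax8 target thyroperoxidase promoter measured by SteadyGlo luminescence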
Chain of Paired box protein Pax-8 (Q06710 whole entry): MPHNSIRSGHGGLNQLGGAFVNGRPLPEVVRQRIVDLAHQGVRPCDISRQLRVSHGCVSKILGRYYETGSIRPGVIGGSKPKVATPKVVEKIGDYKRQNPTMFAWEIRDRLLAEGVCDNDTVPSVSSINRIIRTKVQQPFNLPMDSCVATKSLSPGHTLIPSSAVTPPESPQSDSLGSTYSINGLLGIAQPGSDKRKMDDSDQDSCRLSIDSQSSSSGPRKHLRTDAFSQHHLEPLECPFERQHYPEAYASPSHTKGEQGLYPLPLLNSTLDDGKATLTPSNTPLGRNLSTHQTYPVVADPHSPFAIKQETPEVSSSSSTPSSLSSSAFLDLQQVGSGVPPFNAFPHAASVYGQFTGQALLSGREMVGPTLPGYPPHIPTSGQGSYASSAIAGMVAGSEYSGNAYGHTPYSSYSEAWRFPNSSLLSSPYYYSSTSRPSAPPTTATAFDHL

[3] = target: T1, Heat shock factor protein 1 (Mus musculus, UniProt P38532); test: enhancement of HSF1-driven luciferase signal – cell-based, NIH3T3, luminescence, dose retest, confirmation (AID 435004); format: functional;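 note: stress induced by proteasome inhibitor MG132 added 30 min after compound; luciferase reporter driven by HSF1 response element in NIH3T3 cells; actives raise luminescence as potentiators of the MG132 stress response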
T1 sequence (P38532 whole entry): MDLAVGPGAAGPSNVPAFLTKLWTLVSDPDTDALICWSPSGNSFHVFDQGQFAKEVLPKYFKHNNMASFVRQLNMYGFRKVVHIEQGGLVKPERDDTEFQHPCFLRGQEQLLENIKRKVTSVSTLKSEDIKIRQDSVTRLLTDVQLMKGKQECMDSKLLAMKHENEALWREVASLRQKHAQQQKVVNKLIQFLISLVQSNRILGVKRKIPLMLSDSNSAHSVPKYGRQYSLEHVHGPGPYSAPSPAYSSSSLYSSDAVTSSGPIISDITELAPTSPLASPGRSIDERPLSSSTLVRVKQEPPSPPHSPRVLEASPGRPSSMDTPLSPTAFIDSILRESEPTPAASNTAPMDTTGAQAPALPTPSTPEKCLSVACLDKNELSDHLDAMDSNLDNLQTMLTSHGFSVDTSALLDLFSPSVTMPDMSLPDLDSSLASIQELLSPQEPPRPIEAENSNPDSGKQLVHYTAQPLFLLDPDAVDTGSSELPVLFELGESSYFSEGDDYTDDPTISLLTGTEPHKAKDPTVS

[4] = target: T2, Streptokinase A (Streptococcus pyogenes serotype M1, UniProt P10520); test: viability-normalized secreted streptokinase activity reduction – plasminogen activation absorbance, OD405, dose response (AID 1914); format: functional, Streptococcus pyogenes M1 GAS;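 note: secreted streptokinase activity via plasminogen activation per viability signal from cell pellet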
T2 sequence (P10520 whole entry): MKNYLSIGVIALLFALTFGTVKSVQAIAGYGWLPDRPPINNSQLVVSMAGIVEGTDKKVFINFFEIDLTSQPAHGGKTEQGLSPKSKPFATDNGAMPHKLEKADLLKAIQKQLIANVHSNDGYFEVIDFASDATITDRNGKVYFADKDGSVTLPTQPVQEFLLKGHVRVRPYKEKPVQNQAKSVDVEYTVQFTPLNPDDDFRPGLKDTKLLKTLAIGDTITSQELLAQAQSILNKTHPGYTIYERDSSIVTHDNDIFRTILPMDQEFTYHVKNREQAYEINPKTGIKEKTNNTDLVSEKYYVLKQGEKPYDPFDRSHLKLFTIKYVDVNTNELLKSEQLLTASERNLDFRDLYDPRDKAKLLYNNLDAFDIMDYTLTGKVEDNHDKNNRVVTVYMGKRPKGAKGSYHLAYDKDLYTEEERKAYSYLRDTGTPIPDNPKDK

[5] = system: Streptococcus; test: GAS UMAA2166 growth inhibition – luminescence, BacTiterGlo, counter-screen for streptokinase expression inhibitor project, dose response (AID 1915); format: functional, organism-based;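 note: potency for reduction of bacterial viability or growth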
[6] = system: Streptococcus sp. 'group A'; test: Streptococcus pyogenes SK(-)GAS viability under kanamycin – luminescence, BacTiterGlo, confirmation, counter-screen for streptokinase expression inhibitor project, dose response (AID 1900); format: functional, organism-based
[7] = NIH-3T3 fibroblast cytotoxicity, dose response, cytotoxicity control, cell-based, fluorescence, Alamar Blue, secondary assay (AID 2327); format: functional;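 note: NIH-3T3 mouse fibroblasts cultured with fluconazole at 8 µg/mL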
[8] = fluconazole-exposed Candida albicans growth modulators – fluorescence, retest, confirmation (AID 2467); format: functional, cell-based
[9] = viability of HCT116 lacking mutant beta-catenin – cell-based, human colon tumor, dose response (AID 1045); format: functional;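 note: HCT116 colon tumor cells with beta catenin knocked out; cells exposed to compound for 60 hours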
[10] = viability of PTEN-deleted HCT116 cells – cell-based, HCT116 PTEN knockout, dose response (AID 1047); format: functional;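 note: HCT116 colon tumor cells with PTEN knocked out; cells exposed to compound for 60 hours before readout; potency for loss of cell viability measured by luminescence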
[11] = cells; format: functional
[12] = NIH3T3 cell viability loss – ATP luminescence, mouse fibroblasts, counter-screen, dose response (AID 2010); format: functional, cell-based;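 note: cells exposed to compound for about 90 hours before reading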
[13] = Trypanosoma cruzi growth suppression in host cells – NIH3T3 host cells, beta-gal luminescence, confirmation (AID 2044); format: functional, cell-based;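 note: intracellular parasites grown in NIH/3T3 mouse fibroblasts as host cells; luminescent beta-galactosidase reporter signal from transgenic T. cruzi replicating inside host cells; inhibitors lower the luminescence signal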

With `CCC1CCCCN1C(=O)c1cc(COc2ccc(-n3cncn3)cc2)on1` (configuration not stated) the AC50 [1] was 8.64 µM (active).
With `Brc1ccc(-n2cc(-c3ccccc3)c3c(NN4CCOCC4)ncnc32)cc1` the AC50 [2] was 35.8 µM (active).
For `CC(C)CN(C(=O)COC(=O)C12CC3CC(CC(Cl)(C3)C1)C2)c1c(N)n(Cc2ccccc2)c(=O)[nH]c1=O`, the AC50 [1] was 7.15 µM (active).
For `CC(=O)c1c(N2CCOCC2)nc2ccc(Br)cc2c1-c1ccccc1`, the EC50 [3] was 124 µM (active).
For `CC(=O)OCC1=C(C(=O)O)N2C(=O)C(NC(=O)c3ccc(F)cc3)C2SC1` (configuration not stated), the EC50 [4] was > 150 µM (not active), the EC50 [5] was 7.79 µM (active) and the EC50 [6] was 3.94 µM (active).
For `COC(=O)C1=NN(C(=O)c2ccc(Cl)cc2)C(O)(c2ccccc2)C1` (configuration not stated), the EC50 [7] was 29.9 µM (active) and the EC50 [8] was > 38 µM (not active).
In the case of `CC1CCN(c2nc(CN3CCCCC3)nc3scc(-c4ccccc4)c23)CC1`, the EC50 [4] is reported as 19.1 µM (inconclusive), the EC50 [5] is reported as > 150 µM (not active) and the EC50 [6] is reported as 16.9 µM (active).
With `Fc1ccccc1N=C(S)N1CCN(c2ccccn2)CC1` the EC50 [3] was > 260 µM (inactive).
For `COc1ccc(NC(=O)Cn2cnc3c(cnn3-c3ccc(C)c(C)c3)c2=O)c(OC)c1`, the EC50 [9] was 27.8 µM (active) and the EC50 [10] was 29.5 µM (active).
For `O=C(NC1CCCCC1)c1cc([N+](=O)[O-])n[nH]1`, the EC50 [7] was 154 µM (active) and the EC50 [8] was 1.66 µM (active).
For `Cc1occc1C(=O)N1CCCC(N2CCN(c3cccc(C(F)(F)F)c3)CC2)C1` (configuration not stated), the AC50 [1] was 111 µM (active).
With `Cc1nn2c(O)c3c(nc2c1-c1ccccc1)CCCC3` the IC50 [11] was 11.8 µM (active).
With `COCCCNC(=O)COC(=O)c1ccc(-c2nc3ccccc3s2)s1` the IC50 [11] was 10.5 µM (active).
For `COCCCN1C(=O)C(O)=C(C(=O)c2ccc(OCC(C)C)cc2C)C1c1cccnc1` (configuration not stated), the EC50 [7] was > 150 µM (inactive) and the EC50 [8] was > 38 µM (not active).
For `COc1ccccc1-c1cc(-c2ccccc2)nc(SC(C(N)=O)c2ccccc2)c1C#N` (configuration not stated), the EC50 [9] was 7.47 µM (active) and the EC50 [10] was 5.97 µM (active).
In the case of `O=C(Cc1nc2ccccc2nc1O)c1ccc(Cl)cc1`, the EC50 [3] is reported as 198 µM (inconclusive).
With `CCn1cc(Cl)c(C(=O)N2N=C(c3ccc4ccccc4c3)CC2c2ccccc2O)n1` (configuration not stated) the EC50 [4] was 13 µM (active), the EC50 [5] was > 150 µM (not active) and the EC50 [6] was 9.18 µM (active). For the same compound, the EC50 [12] was > 60 µM (inconclusive) and the EC50 [13] was 1.66 µM (active).
With `COCCn1c(SCC(=O)NC2CCCCC2)nc2c(c1=O)SCC2` the EC50 [3] was > 260 µM (inactive).
With `CCOc1ccccc1N=C(S)N(Cc1cc2ccc(C)cc2nc1O)CC1CCCN1CC` (configuration not stated) the EC50 [9] was 17.4 µM (active) and the EC50 [10] was 20.5 µM (active).
In the case of `CSc1nc2nccc(-c3ccc(-c4ccccc4)cc3)n2n1`, the EC50 [4] is reported as > 150 µM (not active), the EC50 [5] is reported as 23.6 µM (active) and the EC50 [6] is reported as 3.79 µM (active).
In the case of `C[C@H]1CCCCO[C@H](CN(C)Cc2ccc(C(F)(F)F)cc2)[C@@H](C)CN([C@@H](C)CO)C(=O)c2cc(NC(=O)Nc3ccc(F)cc3)ccc2O1`, the AC50 [2] is reported as 10.6 µM (active).
With `CN(C)S(=O)(=O)Oc1cccc(C(=O)Nc2ccc(Cl)cc2)c1` the EC50 [7] was > 160 µM (inactive) and the EC50 [8] was 1.25 µM (active).
In the case of `CCOC(=O)c1c(C)oc2c1c(C(c1ccccc1)N1CCOCC1)c(O)c1ccccc12` (configuration not stated), the EC50 [4] is reported as 0.886 µM (active), the EC50 [5] is reported as 5.32 µM (active) and the EC50 [6] is reported as 3.16 µM (active).
